In patent US10189854B2, “Substituted pyrimidine compounds” (Grünenthal GmbH, priority 2014, dated 2019):
Where a name gives a salt, the structure may show the parent alone.

Biological target: human PDE4B1 (Homo sapiens (Human), UniProt Q07343)
Assay: TR-FRET assay using the LANCE Ultra cAMP kit to determine the activity of hPDE4B1
Type: biochemical
Settings: IC50 inhibition of PDE4B, mean
Procedure, shortened: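 Recombinant human PDE4B1 (Sf9-expressed, 0.96 U) incubated with compound and 500 nM cAMP in 50 mM Tris-HCl, 50 mM MgCl2, 5 mM DTT, pH 8.5, 30 min at room temperature. Residual cAMP read by TR-FRET (665/620 nm ratio) after IBMX stop. IC50 from ten-concentration curves as % inhibition of control.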

human PDE4B1, sequence (Q07343 whole entry): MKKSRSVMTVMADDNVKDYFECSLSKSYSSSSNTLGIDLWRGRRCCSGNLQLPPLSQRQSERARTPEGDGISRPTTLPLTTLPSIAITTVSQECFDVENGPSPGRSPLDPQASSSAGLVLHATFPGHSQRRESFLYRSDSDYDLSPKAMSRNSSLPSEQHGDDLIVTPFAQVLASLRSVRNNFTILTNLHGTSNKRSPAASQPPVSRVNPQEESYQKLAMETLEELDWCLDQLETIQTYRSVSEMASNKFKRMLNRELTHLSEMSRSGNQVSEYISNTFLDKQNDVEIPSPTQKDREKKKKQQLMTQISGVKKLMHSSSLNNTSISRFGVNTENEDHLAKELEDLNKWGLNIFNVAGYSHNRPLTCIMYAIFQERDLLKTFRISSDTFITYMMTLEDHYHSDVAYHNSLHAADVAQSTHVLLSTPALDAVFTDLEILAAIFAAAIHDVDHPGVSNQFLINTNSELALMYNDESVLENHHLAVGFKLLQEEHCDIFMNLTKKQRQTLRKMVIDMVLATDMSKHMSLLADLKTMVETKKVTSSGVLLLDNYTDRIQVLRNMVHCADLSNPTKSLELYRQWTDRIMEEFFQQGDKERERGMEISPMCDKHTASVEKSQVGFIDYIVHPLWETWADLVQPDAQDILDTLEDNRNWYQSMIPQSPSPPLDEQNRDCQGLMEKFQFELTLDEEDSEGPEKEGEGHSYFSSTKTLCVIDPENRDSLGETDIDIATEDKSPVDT

For `COc1cc(OC)nc(-c2cnc(N3CC4(CC4)c4ccc(C(=O)N(C)CCO)cc43)nc2)c1` [Compound 328, 1-[5-(4,6-Dimethoxy-pyridin-2-yl)-pyrimidin-2-yl]-N-(2-hydroxy-ethyl)-N-methyl-spiro[1,2-dihydro-indole-3,1′-cyclopropane]-6-carboxylic acid amide], the IC50 was under 0.1 µM.

For `CN(CC(N)=O)C(=O)c1ccc2c(c1)N(c1ncc(-c3cc(C4CC4)ccn3)cn1)CC21CC1` [Compound 337, N-(Carbamoyl-methyl)-1-[5-(4-cyclopropyl-pyridin-2-yl)-pyrimidin-2-yl]-N-methyl-spiro[1,2-dihydro-indole-3,1′-cyclopropane]-6-carboxylic acid amide], the IC50 was under 0.1 µM.

With `N[C@@H]1CCN(C(=O)c2ccc3c(c2)N(c2ncc(-c4ccccn4)cn2)CC32CC2)C1` [Compound 329, [(3R)-3-Amino-pyrrolidin-1-yl]-[1-(5-pyridin-2-yl-pyrimidin-2-yl)-spiro[1,2-dihydro-indole-3,1′-cyclopropane]-6-yl]-methanone] the IC50 was under 0.1 µM.

Work on `CC(C)(O)c1ccnc(-c2cnc(N3CC4(CC4)c4ccc(C(=O)N5CCOCC5)cc43)nc2)c1` [Compound 294, [1-[5-[4-(1-Hydroxy-1-methyl-ethyl)-pyridin-2-yl]-pyrimidin-2-yl]-spiro[1,2-dihydro-indole-3,1′-cyclopropane]-6-yl]-morpholin-4-yl-methanone] yielded an IC50 of under 0.1 µM.

`O=C(c1ccc2c(c1)N(c1ncc(-c3ccccc3F)cn1)CC21CC1)N1CCO[C@@H](CO)C1` [Compound 362, [1-[5-(2-Fluorophenyl)-pyrimidin-2-yl]-spiro[1,2-dihydro-indole-3,1′-cyclopropane]-6-yl]-[(2R)-2-(hydroxymethyl)-morpholin-4-yl]-methanone] was tested, and the IC50 was under 0.1 µM.

With `O=C(c1ccc2c(c1)N(c1ncc(-c3ccccc3F)cn1)CC21CC1)N(CCO)C1CC1` [Compound 278, N-Cyclopropyl-1-[5-(2-fluorophenyl)-pyrimidin-2-yl]-N-(2-hydroxy-ethyl]-spiro[1,2-dihydro-indole-3,1′-cyclopropane]-6-carboxylic acid amide] the IC50 was under 0.1 µM.

`CCOc1ccnc(-c2cnc(N3CC4(CC4)c4ccc(C(=O)N(C)CCO)cc43)nc2)c1` [Compound 257, 1-[5-(4-Ethoxy-pyridin-2-yl)-pyrimidin-2-yl]-N-(2-hydroxy-ethyl)-N-methyl-spiro[1,2-dihydro-indole-3,1′-cyclopropane]-6-carboxylic acid amide] was tested, and the IC50 was under 0.1 µM.

In the case of `COC(=O)CN(C)C(=O)c1ccc2c(c1)N(c1ncc(-c3ccccc3F)cn1)CC21CC1` [Compound 246, 2-[[1-[5-(2-Fluorophenyl)-pyrimidin-2-yl]-spiro[1,2-dihydro-indole-3,1′-cyclopropane]-6-carbonyl]-methyl-amino]acetic acid methyl ester], the IC50 was 0.1 to 1 µM.

Work on `CN(CCO)C(=O)c1ccc2c(c1)N(c1ncc(-c3cc(N)ccn3)cn1)CC21CC1` [Compound 251, 1-[5-(4-Amino-pyridin-2-yl)-pyrimidin-2-yl]-N-(2-hydroxy-ethyl)-N-methyl-spiro[1,2-dihydro-indole-3,1′-cyclopropane]-6-carboxylic acid amide] yielded an IC50 of under 0.1 µM.

Work on `CN(CCO)C(=O)c1ccc2c(c1)N(c1ncc(-c3cc(N(C)C)ccn3)cn1)CC21CC1` [Compound 272, 1-[5-(4-Dimethylamino-pyridin-2-yl)-pyrimidin-2-yl]-N-(2-hydroxy-ethyl)-N-methyl-spiro[1,2-dihydro-indole-3,1′-cyclopropane]-6-carboxylic acid amide] yielded an IC50 of under 0.1 µM.

Work on `CCc1cccc(-c2cnc(N3CC4(CC4)c4ccc(C(=O)N(C)CCO)cc43)nc2)c1` [Compound 266, 1-[5-(3-Ethyl-phenyl)-pyrimidin-2-yl]-N-(2-hydroxy-ethyl)-N-methyl-spiro[1,2-dihydro-indole-3,1′-cyclopropane]-6-carboxylic acid amide] yielded an IC50 of under 0.1 µM.

`COc1ccnc(-c2cnc(N3CC4(CC4)c4ccc(C(=O)N5CC[C@@H](N)C5)cc43)nc2)c1` [Compound 330, [(3R)-3-Amino-pyrrolidin-1-yl]-[1-[5-(4-methoxy-pyridin-2-yl)-pyrimidin-2-yl]-spiro[1,2-dihydro-indole-3,1′-cyclopropane]-6-yl]-methanone] showed an IC50 of under 0.1 µM.

`CN(CCO)C(=O)c1ccc2c(c1)N(c1ncc(-c3cc(S(C)(=O)=O)ccc3F)cn1)CC21CC1` [Compound 296, 1-[5-(2-Fluoro-5-methylsulfonyl-phenyl)-pyrimidin-2-yl]-N-(2-hydroxy-ethyl)-N-methyl-spiro[1,2-dihydro-indole-3,1′-cyclopropane]-6-carboxylic acid amide] was tested, and the IC50 was under 0.1 µM.

`CN(CCO)C(=O)c1ccc2c(c1)N(c1ncc(-c3csc(CO)n3)cn1)CC21CC1` [Compound 326, N-(2-Hydroxy-ethyl)-1-[5-[2-(hydroxymethyl)-thiazol-4-yl]-pyrimidin-2-yl]-N-methyl-spiro[1,2-dihydro-indole-3,1′-cyclopropane]-6-carboxylic acid amide] was tested, and the IC50 was under 0.1 µM.

`CN(CCO)C(=O)c1ccc2c(c1)N(c1ncc(-c3cccc(Cl)c3)cn1)CC21CC1` [Compound 273, 1-[5-(3-Chlorophenyl)-pyrimidin-2-yl]-N-(2-hydroxy-ethyl)-N-methyl-spiro[1,2-dihydro-indole-3,1′-cyclopropane]-6-carboxylic acid amide] showed an IC50 of under 0.1 µM.

`CCc1ccnc(-c2cnc(N3CC4(CC4)c4ccc(C(=O)N(C)CC(N)=O)cc43)nc2)c1` [Compound 308, N-(Carbamoyl-methyl)-1-[5-(4-ethyl-pyridin-2-yl)-pyrimidin-2-yl]-N-methyl-spiro[1,2-dihydro-indole-3,1′-cyclopropane]-6-carboxylic acid amide] was tested, and the IC50 was under 0.1 µM.

In the case of `Nc1ccnc(-c2cnc(N3CC4(CC4)c4ccc(C(=O)N5CC6CC5CN6)cc43)nc2)c1` (stereo not shown) [Compound 263, [1-[5-(4-Amino-pyridin-2-yl)-pyrimidin-2-yl]-spiro[1,2-dihydro-indole-3,1′-cyclopropane]-6-yl]-(2,5-diazabicyclo[2.2.1]heptan-2-yl)-methanone dihydrochloride], the IC50 was under 0.1 µM.

`Cc1cccc(-c2cnc(N3CC4(CC4)c4ccc(C(=O)N(C)CCO)cc43)nc2)n1` [Compound 234, N-(4-Hydroxy-ethyl)-N-methyl-1-[5-(6-methyl-pyridin-2-yl)-pyrimidin-2-yl]-spiro[1,2-dihydro-indole-3,1′-cyclopropane]-6-carboxylic acid amide] was tested, and the IC50 was under 0.1 µM.

`CN(C)c1ccnc(-c2cnc(N3CC4(CC4)c4ccc(C(=O)N5CCNC(=O)C5)cc43)nc2)c1` [Compound 255] showed an IC50 of under 0.1 µM.

`CC(O)c1cccc(-c2cnc(N3CC4(CC4)c4ccc(C(=O)N(C)CCO)cc43)nc2)c1` (stereo not shown) [Compound 322, N-(2-Hydroxy-ethyl)-1-[5-[3-(1-hydroxy-ethyl)-phenyl]-pyrimidin-2-yl]-N-methyl-spiro[1,2-dihydro-indole-3,1′-cyclopropane]-6-carboxylic acid amide] was tested, and the IC50 was under 0.1 µM.

Work on `C[C@H](O)CN(C)C(=O)c1ccc2c(c1)N(c1ncc(-c3ccccc3F)cn1)CC21CC1` [Compound 284, 1-[5-(2-Fluorophenyl)-pyrimidin-2-yl]-N-[(2S)-2-hydroxy-propyl]-N-methyl-spiro[1,2-dihydro-indole-3,1′-cyclopropane]-6-carboxylic acid amide] yielded an IC50 of under 0.1 µM.

For `CN(CCO)C(=O)c1ccc2c(c1)N(c1ncc(-c3ccc4c(c3)OCO4)cn1)CC21CC1` [Compound 219, 1-[5-(1,3-Benzodioxol-5-yl)-pyrimidin-2-yl]-N-(2-hydroxy-ethyl)-N-methyl-spiro[1,2-dihydro-indole-3,1′-cyclopropane]-6-carboxylic acid amide], the IC50 was under 0.1 µM.

Compound `Cc1cccc(-c2cnc(N3CC4(CC4)c4ccc(C(=O)N5C[C@@H]6C[C@H]5CN6)cc43)nc2)n1` [Compound 305, [(1S,4S)-2,5-Diazabicyclo[2.2.1]heptan-2-yl]-[1-[5-(6-methyl-pyridin-2-yl)-pyrimidin-2-yl]-spiro[1,2-dihydro-indole-3,1′-cyclopropane]-6-yl]-methanone] has an IC50 of under 0.1 µM.

With `CN(CCO)C(=O)c1ccc2c(c1)N(c1ncc(-c3cc([S+](C)[O-])ccn3)cn1)CC21CC1` (stereo not shown) [Compound 288, N-(2-Hydroxy-ethyl)-N-methyl-1-[5-[4-(methylsulfinyl)-pyridin-2-yl]-pyrimidin-2-yl]-spiro[1,2-dihydro-indole-3,1′-cyclopropane]-6-carboxylic acid amide] the IC50 was under 0.1 µM.

With `CN(CCO)C(=O)c1ccc2c(c1)N(c1ncc(-c3cccc(F)c3F)cn1)CC21CC1` [Compound 225, 1-[5-(2,3-Difluoro-phenyl)-pyrimidin-2-yl]-N-(2-hydroxy-ethyl)-N-methyl-spiro[1,2-dihydro-indole-3,1′-cyclopropane]-6-carboxylic acid amide] the IC50 was under 0.1 µM.

`CN(CCO)C(=O)c1ccc2c(c1)N(c1ncc(-c3nc(CC#N)cs3)cn1)CC21CC1` [Compound 350, 1-[5-[4-(Cyano-methyl)-thiazol-2-yl]-pyrimidin-2-yl]-N-(2-hydroxy-ethyl)-N-methyl-spiro[1,2-dihydro-indole-3,1′-cyclopropane]-6-carboxylic acid amide] showed an IC50 of under 0.1 µM.

For `CC(C)c1ccnc(-c2cnc(N3CC4(CC4)c4ccc(C(=O)N5CC[C@@H](N)C5)cc43)nc2)c1` [Compound 331, [(3R)-3-Amino-pyrrolidin-1-yl]-[1-[5-(4-isopropyl-pyridin-2-yl)-pyrimidin-2-yl]-spiro[1,2-dihydro-indole-3,1′-cyclopropane]-6-yl]-methanone], the IC50 was under 0.1 µM.

With `CN(CCO)C(=O)c1ccc2c(c1)N(c1ncc(-c3cccc(S(C)(=O)=O)c3)cn1)CC21CC1` [Compound 277, N-(2-Hydroxy-ethyl)-N-methyl-1-[5-(3-methylsulfonyl-phenyl)-pyrimidin-2-yl]-spiro[1,2-dihydro-indole-3,1′-cyclopropane]-6-carboxylic acid amide] the IC50 was under 0.1 µM.
